The structures appear in SMILES notation. Where two headings read alike, the source gives them in different places.

The format of series [1] is physicochemical. Particulars: 1 w. On the procedure: For each salt, approximately 5 mg compound was added into an 8 mL glass vial with a multi-hole aluminum foil cap, and kept at 60° C., 40° C./75% RH for 1 week. […] Appearance by visual observation were recorded followed by purity assessment and XPRD data collection on the residual solids.
Series [2] is classed as physicochemical.
Series [3] is classed as physicochemical. Conditions: for Final pH: 37° C., 24 h.
Series [4] in a line: Dynamic vapor sorption (DVS), gravimetric moisture sorption. It counts as physicochemical. Conditions: at 80% Relative Humidity, 25° C. On the procedure: Dynamic Vapor Sorption (DVS) were collected conducted using an SMS DVS Advantage 1 system. For each sample analyzed approximately 10 mg of material was transferred into the DVS instrument and recorded the weight change with respect to the atmospheric humidity at 25° C. using the following parameters: Equilibrium dm/dt: 0.01%/min, (for min: 10 min and max: 180 min); drying setting were 0% RH for 120 min; RH (%) measurement step at 10% and RH (%) measurement step scope of 0-90-0%.

Series [5] is described as follows: Bulk density for salts of Compound 1. It is filed as physicochemical. Particulars: Form A.
The mark [6] stands for this setting: 40° C./75% RH, listed as Hydrobromide (Form C).
Setting [7] is: 60° C., listed as Hydrobromide (Form C).
Setting [8] is: 1.2 million lux-hrs, listed as Hydrobromide (Form C).
The mark [9] stands for this setting: Dark control, listed as Hydrobromide (Form C).
Setting [10] is: 40° C./75% RH, listed as Hydrobromide (Form A).
Where [11] appears, read: 60° C., listed as Hydrobromide (Form A).
Where [12] appears, read: 1.2 million lux-hrs, listed as Hydrobromide (Form A).
[13] abbreviates: Dark control, listed as Hydrobromide (Form A).

Turning to `Br.COC[C@@]1(O)CC[C@@]2(C)[C@@H](CC[C@@H]3[C@@H]2CC[C@]2(C)[C@@H](C(=O)Cn4ccnc4)CC[C@@H]32)C1` [Compound 1 HBr (Form C)], the Final purity in series [1] (setting [6]) was found to be 98.4; in series [1] (setting [7]) it was 98.1; in series [2] (setting [8]), 98.1; in series [2] (setting [9]), 98.0. In addition, the XRPD pattern result in series [1] (setting [6]), in series [1] (setting [7]), in series [2] (setting [8]) and in series [2] (setting [9]) was “Form C + B” throughout. Moreover, the “Final pH” value in series [3] (FaSSIF (original pH = 6.51), listed as Hydrobromide (Form C)) was found to be 4.90; in series [3] (FeSSIF (original pH = 4.99), listed as Hydrobromide (Form C)), 5.05; in series [3] (SGF (original pH = 1.82), listed as Hydrobromide (Form C)) it was 1.99. Moreover, the gravimetric moisture sorption entry in series [4] was “about 0.25 % (by weight)”.
Turning to `Br.COC[C@@]1(O)CC[C@@]2(C)[C@@H](CC[C@@H]3[C@@H]2CC[C@]2(C)[C@@H](C(=O)Cn4ccnc4)CC[C@@H]32)C1` [Compound 1 HBr (Form A)], the Final purity in series [1] (setting [10]) is given as 98.2; in series [1] (setting [11]) it was 98.0; in series [2] (setting [12]), 98.2; in series [2] (setting [13]), 97.9. Also, the XRPD pattern entry in series [1] (setting [10]), in series [1] (setting [11]), in series [2] (setting [12]) and in series [2] (setting [13]) was “Form A” each time. Besides, the “Final pH” value in series [3] (FaSSIF (original pH = 6.51), listed as Hydrobromide (Form A)) amounted to 4.11; in series [3] (FeSSIF (original pH = 4.99), listed as Hydrobromide (Form A)), 5.01; in series [3] (SGF (original pH = 1.82)), 1.91. In series [4], the gravimetric moisture sorption result is “about 1.1 % (by weight)”.
For the compound `O=C(O)CC(O)(CC(=O)O)C(=O)O` [Citrate], in series [5], the “Bulk Density” value is 0.49 g/mL and the “Tapped Density” value was determined as 0.70 g/mL.
On the same counts, the results for `O=C(O)C(O)C(O)C(=O)O` (centres unmarked) [Tartrate] are 0.13 g/mL and 0.32 g/mL.
Consider `COCC1(O)CCC2(C)C(CCC3C2CCC2(C)C(C(=O)Cn4ccnc4)CCC32)C1.Nc1ccc(C(=O)O)c(O)c1` (centres unmarked) [p-Aminosalicylate (Form A)], for which, in series [3] (FaSSIF (original pH = 6.51), after solubility test), the “Final pH (FaSSIF)” value is given as 5.12. In series [3] (FeSSIF (original pH = 4.99), after solubility test), the “Final pH (FeSSIF)” value was 5.06. The “Final pH (SGF)” value in series [3] (SGF (original pH = 1.82), after solubility test) came to 3.73.
For `COC[C@@]1(O)CC[C@@]2(C)[C@@H](CC[C@@H]3[C@@H]2CC[C@]2(C)[C@@H](C(=O)Cn4ccnc4)CC[C@@H]32)C1.O=C(O)CC(O)(CC(=O)O)C(=O)O` [Compound 1 Citrate (Form B)], the Final purity in series [1] (40° C./75% RH) is listed as 98.3; in series [1] (60° C.), 97.7; in series [2] (1.2 million lux-hrs) it was 99.3; in series [2] (Dark control), 99.1. Besides, the XRPD pattern entry in series [1] (40° C./75% RH), in series [1] (60° C.), in series [2] (1.2 million lux-hrs) and in series [2] (Dark control) was “Form B” throughout. For the same compound, the gravimetric moisture sorption result in series [4] is recorded as “about 2.8 % (by weight)”.
Turning to `Br.COCC1(O)CCC2(C)C(CCC3C2CCC2(C)C(C(=O)Cn4ccnc4)CCC32)C1` (centres unmarked) [Compound 1 HBr (Form B)], the Final purity in series [1] (40° C./75% RH) is 98.9; in series [1] (60° C.), 98.8; in series [2] (1.2 million lux-hrs), 98.4; in series [2] (Dark control), 97.8. The XRPD pattern result in series [1] (40° C./75% RH), in series [1] (60° C.), in series [2] (1.2 million lux-hrs) and in series [2] (Dark control) was “Form B” throughout. Moreover, the “Final pH” value in series [3] (FaSSIF (original pH = 6.51)) is reported as 5.51; in series [3] (FeSSIF (original pH = 4.99)) it was 4.89; in series [3] (SGF (original pH = 1.82)), 1.89. In series [4], the gravimetric moisture sorption entry is reported as “about 0.2 % (by weight)”.
In the case of `Br.COC[C@@]1(O)CC[C@@]2(C)[C@@H](CC[C@@H]3[C@@H]2CC[C@]2(C)[C@@H](C(=O)Cn4ccnc4)CC[C@@H]32)C1` [HBr], in series [5], the “Bulk Density” value turned out to be 0.27 g/mL and the “Tapped Density” value stood at 0.50 g/mL.
On the same counts, the results for `COCC1(O)CCC2(C)C(CCC3C2CCC2(C)C(C(=O)Cn4ccnc4)CCC32)C1.O=P(O)(O)O` (centres unmarked) [Phosphate] are 0.15 g/mL and 0.33 g/mL.

The values are drawn from US10927141B2 (priority 2018, dated 2021).
